This is an account of results in patent publication US5540917A, “Biomass lipase inhibitor useful for treating adiposity” (Hoffmann-La Roche Inc., priority 1992, dated 1996).

For series [1], the system named is fat absorption. Put plainly: Fat absorption (C-14 triolein) in mice on fat diet, single and repeated administration of LOC. Type of series: in vivo, Albino mice. The following applies: LOC 50 mg/kg body wt. The text has this:
Determination of the activity of a lipase inhibitor using the lipstatin derivative LOC defined above, by way of example, on the fat s absorption from the feed in the case of single and repeated administration to mice was undertaken.
3 Albino mice weighing 25 g were used per dose in the test.
The mice received over several days a so-called fat diet in which the fat content was adjusted such that the mice received 23.4 g of fat per kg body wt. per day. The mice were fed with this feed for 8 days. On days 3 to 6 of the test C-14, labelled triolein and LOC in a dose of 50 mg/kg body weight were admixed with this feed. The feces of the mice was collected at intervals of 24 hours from days 4 to 8 of the test and evaluated according to the guidelines given in Example 1.
The control animals each received the test diet without the LOC active substance.
The absorption of the orally administered fat was measured as in Examples 1, and 2.

The nature of series [2]: Consistency of feces of the dogs. Type of series: in vivo.
Series [3] deals with fat absorption. Put plainly: Fat absorption from test meal in dogs (C-14 triolein recovery in feces), THL with or without cellulose. It counts as in vivo. The following applies: for Triolein absorption in % of the applied dose: 26 g fat. The text has this: Female dogs aged 7 to 15 years and having a body weight between 13 and 22 kg are divided into 2 groups each of 6 animals. The animals are fed with a standard dog food. The animals have free access to drinking water. The animals are given a test meal on the day of the test. This test meal contains as feed components 7.5% protein, 19% is carbohydrate, 6% fat, 1.6% minerals, 45% water and 20% ballast materials. The fat of the feed consists of 58% olive oil treated with C-14 triolein. The remaining fat is composed predominantly of saturated fatty acids. The absorption of the fat administered orally with the test diet was measured on the basis of the recovered radioactivity in the feces of the dogs. The difference between the orally-administered amount of C-14 labelled triolein and the radioactivity found in the feces within three days after intake of the test meal is considered to be absorbed fat. The absorbed amount is given as a percentage of the administered amount. The lower the absorption is, that is, the lower the percentage is, then the greater is the activity of the lipase inhibitor.

A short description of series [4]: Blood plasma total glycerol in dogs after a test meal with THL and cellulose. The following applies: 50 mg THL + 80 g cellulose. It counts as in vivo. The text has this: Female dogs aged 7 to 15 years and having a body weight between 13 and 22 kg are divided into 2 groups each of 6 animals. The animals are fed with a standard dog food. The animals have free access to drinking water. The animals are given a test meal on the day of the test. This test meal contains as feed components 7.5% protein, 19% is carbohydrate, 6% fat, 1.6% minerals, 45% water and 20% ballast materials. The fat of the feed consists of 58% olive oil treated with C-14 triolein. The remaining fat is composed predominantly of saturated fatty acids. The blood plasma concentrations with respect to total glycerol of dogs which received test diet of 50 mg THL +80 g cellulose have been compared in Table 2 with those of a control without THL, but with cellulose.

For series [5], the system named is fat absorption. In words: Dog test: fat absorption (C-14 triolein), LST in the fermentation cake alone or with cellulose. It counts as in vivo, dogs. Particulars: even when present in a fermentation cake; confirms mouse test. The text has this:
Female dogs aged 7 to 15 years and having a body weight between 13 and 22 kg are divided into 2 groups each of 6 animals. The animals are fed with a standard dog food. The animals have free access to drinking water.
The animals are given a test meal on the day of the test. This test meal contains as feed components 7.5% protein, 19% is carbohydrate, 6% fat, 1.6% minerals, 45% water and 20% ballast materials. The fat of the feed consists of 58% olive oil treated with C-14 triolein. The remaining fat is composed predominantly of saturated fatty acids.
The absorption of the fat administered orally with the test diet was measured on the basis of the recovered radioactivity in the feces of the dogs. The difference between the orally-administered amount of C-14 labelled triolein and the radioactivity found in the feces within three days after intake of the test meal is considered to be absorbed fat. The absorbed amount is given as a percentage of the administered amount. The lower the absorption is, that is, the lower the percentage is, then the greater is the activity of the lipase inhibitor.
Microbiologically-produced lipstatin (LST) is used as the lipase inhibitor in both parts of the test. […] The content of LST in the cake was determined at 4 g of LST per kg of fresh fermentation cake using conventional analytical methods. […]

Series [6] relates to fat absorption. In words: Mouse test: fat absorption (C-14 triolein), pure LST versus LST in a fermentation cake. Type of series: in vivo. The following applies: oral, 3 mice. On the procedure: Microbiologically-produced lipstatin (LST) is used as the lipase inhibitor in both parts of the test. LST is equivalent as a chemically pure substance with LST as a component of a fermentation cake produced according to Example 4 of EP 129 748. The content of LST in the cake was determined at 4 g of LST per kg of fresh fermentation cake using conventional analytical methods.
a) Mouse test Comparison of chemically pure LST with LST as a component of a fermentation cake.
Pure LST or the dried fermentation cake was suspended in 5% gum arabic/5% lactose preparation, conventional in pharmacological tests, and administered orally to animals, which had been pre-fasted for 24 hours, in an amount of 10 ml/kg per mouse immediately after a liquid test meal. The test meal contained 2.5% starch, 24% glucose, 12% lactose and 7.6% olive oil labelled with C-14 triolein. Thereafter, the mice received a conventional standard feed.
The calculation of the absorbed fat in the feed was carried out as described in Example 1.
The results of the test are reported in Table 3 in which the LST dose is calculated per mg/kg body weight. The values are average values calculated from measurements on, in each case, 3 mice per test.

`CCCCCCCCCCCCCCCCC[C@@H](C[C@@H]1OC(=O)[C@H]1CC)OC(=O)[C@H](CC(C)C)NC=O` [LOC, N-formyl-L-leucine (S)-1-[[(2S,3S)-3-ethyl-4-oxo-2-oxetanyl]methyl]octadecyl ester]: the figures for the “Triolein absorption in % of the amount given orally (±SDM)” value in the series on fat absorption [1] (1st day) and in the series on fat absorption [1] (4th day) were 26 ± 4% and 26 ± 3%, respectively.

In the case of `CCCCCCCCCCC[C@@H](C[C@@H]1OC(=O)[C@H]1CCCCCC)OC(=O)[C@H](CC(C)C)NC=O` [THL, tetrahydrolipstatin], the “consistency of the feces” value is “solid and formed” in series [2] (THL in combination with cellulose); “rather pulp-like” in series [2] (THL without cellulose). In the series with fat absorption [3] (50 mg THL + 80 g cellulose), the attenuated fat absorption came out at 28%. Further, the “Triolein absorption in % of the applied dose” value in the series on fat absorption [3] (THL 20 mg/test meal (1.5 mg/kg body wt.) + 80 g cellulose, 420 g test meal) turned out to be 48%; in the series on fat absorption [3] (THL 20 mg/test meal (1.5 mg/kg body wt.), no cellulose, 340 g test meal), 70%; in the series with fat absorption [3] (THL 50 mg/test meal (4 mg/kg body wt.) + 80 g cellulose, 420 g test meal), 28%; with fat absorption [3] (THL 50 mg/test meal (4 mg/kg body wt.), no cellulose, 340 g test meal) it was 63%. The “activity of the lipase inhibitor when cellulose is added” value with fat absorption [3] (THL + cellulose versus THL alone) is reported as “considerably increased”. Also, the “inhibition of the absorption of the administered radioactively labelled fat in the feed” value in the series with fat absorption [3] (THL after addition of cellulose (about)) is listed as 52-70%. In addition, the “reduction of the absorption of fat contained in the feed” value with fat absorption [3] (THL as sole additive to the test meal, depending on the dose (20 or 50 mg/meal)) is 30-37%. Further, the Total plasma glycerol in series [4] (3 hrs. after administration) is given as 0.5 ± 0.02 mmol/l ± SEM; in series [4] (7 hrs. after administration), 0.9 ± 0.13 mmol/l ± SEM; in series [4] (before administration (starting value)) it was 0.7 ± 0.07 mmol/l ± SEM. In addition, in series [4] (3 hours after test meal), the plasma glycerol increase result was “no increase”. Also, the “increase in the absorption” value in series [4] (7 hours postprandial) is listed as “slight increase”.

Take `CCCCCCCCCCC[C@@H](C[C@@H]1OC(=O)[C@H]1CCCCCC)OC(=O)[C@H](CC(C)C)NC=O` [pure LST, lipstatin]: the lipase inhibitor activity result in the series with fat absorption [5] was “very active lipase inhibitor”. Besides, the “Triolein absorption in % per dose administered” value in the series on fat absorption [6] (LST dose 5.0 mg/kg) was 69%; in the series with fat absorption [6] (LST dose 15 mg/kg) it was 52%; in the series with fat absorption [6] (LST dose 50.0 mg/kg) it was 41%.
